Legend:
BRD3 BD1 WT = BRD3 BD1 WT (Homo sapiens, UniProt Q15059); assay: ITC; assay type: binding
M3 (h) = M3 (h) (Homo sapiens, UniProt P20309); assay: CEREP ExpresSProfile; details: read-out: Mean % of control specific binding (±SD)
BRD4 BD2 L/V = BRD4 BD2 L/V (Homo sapiens, UniProt O60885, L387V); assay: ITC; assay type: binding
BRD4 BD1 WT [1] = target: T1, BRD4 BD1 WT (Homo sapiens, UniProt O60885); assay: ITC; assay type: binding
BRD3 BD2 WT = BRD3 BD2 WT (Homo sapiens, UniProt Q15059); assay: ITC; assay type: binding
Chain of BRD3 BD2 WT (Q15059 306-416): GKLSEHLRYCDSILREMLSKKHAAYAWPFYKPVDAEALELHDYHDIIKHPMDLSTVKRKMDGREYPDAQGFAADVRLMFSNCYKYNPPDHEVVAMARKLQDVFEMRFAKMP

BRD4 BD1 L/V [2] = target: T2, BRD4 BD1 L/V (Homo sapiens, UniProt O60885, L94V); assay: competitive AlphaLISA; assay type: binding; details: total compound concentration
D1 (h) = D1 (h) (Homo sapiens, UniProt P21728); assay: CEREP ExpresSProfile; details: read-out: Mean % of control specific binding (±SD)
[3] = tested on: L/V somatic BET bromodomains; assay: ITC; details: L/V BET bromodomains
SYK = SYK (Homo sapiens, UniProt P43405); assay: kinase Express Screen; assay type: biochemical
Procedure: (§1) Kinase Remaining activity
(§2) Table S9. 9-ME-1 Kinase Screen
(§3) Activity of panel of human kinases following treatment with 1 µM (2R, 3S)-7. Dundee MRC-PPU Express Screen
(§4) (http://www.kinase-screen.mrc.ac.uk/services/express-screen)

JNK1 = JNK1 (Homo sapiens, UniProt P45983); assay: kinase Express Screen; assay type: biochemical
Chain of JNK1 (P45983 whole entry): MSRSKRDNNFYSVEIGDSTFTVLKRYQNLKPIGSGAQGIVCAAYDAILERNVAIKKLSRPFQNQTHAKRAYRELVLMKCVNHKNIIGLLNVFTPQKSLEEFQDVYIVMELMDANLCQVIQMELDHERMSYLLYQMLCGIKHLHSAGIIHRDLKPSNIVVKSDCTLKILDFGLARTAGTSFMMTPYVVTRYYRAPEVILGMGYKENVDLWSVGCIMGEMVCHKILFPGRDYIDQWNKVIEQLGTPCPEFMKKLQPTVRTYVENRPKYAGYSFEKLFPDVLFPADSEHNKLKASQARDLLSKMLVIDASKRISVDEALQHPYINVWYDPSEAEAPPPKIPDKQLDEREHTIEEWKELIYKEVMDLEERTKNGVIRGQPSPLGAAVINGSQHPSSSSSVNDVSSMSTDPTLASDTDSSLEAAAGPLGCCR
Procedure: as §1, §2, §3, §4

MKK1 = MKK1 (Homo sapiens, UniProt Q02750); assay: kinase Express Screen; assay type: biochemical
Chain of MKK1 (Q02750 whole entry): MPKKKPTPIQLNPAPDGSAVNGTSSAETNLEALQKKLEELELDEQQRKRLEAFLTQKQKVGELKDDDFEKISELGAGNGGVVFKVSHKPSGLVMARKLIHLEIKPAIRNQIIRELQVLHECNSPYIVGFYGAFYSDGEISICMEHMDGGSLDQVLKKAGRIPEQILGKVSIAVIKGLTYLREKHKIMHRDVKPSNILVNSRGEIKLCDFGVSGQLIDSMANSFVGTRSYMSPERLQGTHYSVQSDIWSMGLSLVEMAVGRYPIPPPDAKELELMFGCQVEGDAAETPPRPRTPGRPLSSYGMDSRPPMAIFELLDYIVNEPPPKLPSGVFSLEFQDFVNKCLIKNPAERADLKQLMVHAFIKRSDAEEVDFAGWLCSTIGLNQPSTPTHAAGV
Procedure: as §1, §2, §3, §4

Src = Src (Homo sapiens, UniProt P12931); assay: kinase Express Screen; assay type: biochemical
Procedure: as §1, §2, §3, §4

MARK3 = MARK3 (Homo sapiens, UniProt P27448); assay: kinase Express Screen; assay type: biochemical
Chain of MARK3 (P27448 whole entry): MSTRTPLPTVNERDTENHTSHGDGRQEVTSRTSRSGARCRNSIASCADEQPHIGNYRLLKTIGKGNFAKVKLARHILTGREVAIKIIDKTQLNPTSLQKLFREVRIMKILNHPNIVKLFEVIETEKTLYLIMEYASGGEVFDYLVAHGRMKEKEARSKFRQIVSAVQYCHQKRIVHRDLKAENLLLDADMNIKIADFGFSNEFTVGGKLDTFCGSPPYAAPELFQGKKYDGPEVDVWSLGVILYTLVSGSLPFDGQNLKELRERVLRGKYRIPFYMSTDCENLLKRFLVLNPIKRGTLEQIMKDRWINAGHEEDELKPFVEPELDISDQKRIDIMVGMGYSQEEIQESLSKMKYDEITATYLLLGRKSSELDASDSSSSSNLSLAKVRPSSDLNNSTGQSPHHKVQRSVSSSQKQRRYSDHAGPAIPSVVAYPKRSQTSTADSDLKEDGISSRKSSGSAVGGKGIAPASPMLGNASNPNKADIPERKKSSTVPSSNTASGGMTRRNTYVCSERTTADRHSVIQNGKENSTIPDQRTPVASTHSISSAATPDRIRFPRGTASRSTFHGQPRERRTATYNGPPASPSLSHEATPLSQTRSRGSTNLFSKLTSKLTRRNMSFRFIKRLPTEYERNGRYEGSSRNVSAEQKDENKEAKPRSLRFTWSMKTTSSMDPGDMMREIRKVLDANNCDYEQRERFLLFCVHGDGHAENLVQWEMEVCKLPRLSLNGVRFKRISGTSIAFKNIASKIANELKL
Procedure: as §1, §2, §3, §4

TrkA = TrkA (Homo sapiens, UniProt P04629); assay: kinase Express Screen; assay type: biochemical
Chain of TrkA (P04629 33-796): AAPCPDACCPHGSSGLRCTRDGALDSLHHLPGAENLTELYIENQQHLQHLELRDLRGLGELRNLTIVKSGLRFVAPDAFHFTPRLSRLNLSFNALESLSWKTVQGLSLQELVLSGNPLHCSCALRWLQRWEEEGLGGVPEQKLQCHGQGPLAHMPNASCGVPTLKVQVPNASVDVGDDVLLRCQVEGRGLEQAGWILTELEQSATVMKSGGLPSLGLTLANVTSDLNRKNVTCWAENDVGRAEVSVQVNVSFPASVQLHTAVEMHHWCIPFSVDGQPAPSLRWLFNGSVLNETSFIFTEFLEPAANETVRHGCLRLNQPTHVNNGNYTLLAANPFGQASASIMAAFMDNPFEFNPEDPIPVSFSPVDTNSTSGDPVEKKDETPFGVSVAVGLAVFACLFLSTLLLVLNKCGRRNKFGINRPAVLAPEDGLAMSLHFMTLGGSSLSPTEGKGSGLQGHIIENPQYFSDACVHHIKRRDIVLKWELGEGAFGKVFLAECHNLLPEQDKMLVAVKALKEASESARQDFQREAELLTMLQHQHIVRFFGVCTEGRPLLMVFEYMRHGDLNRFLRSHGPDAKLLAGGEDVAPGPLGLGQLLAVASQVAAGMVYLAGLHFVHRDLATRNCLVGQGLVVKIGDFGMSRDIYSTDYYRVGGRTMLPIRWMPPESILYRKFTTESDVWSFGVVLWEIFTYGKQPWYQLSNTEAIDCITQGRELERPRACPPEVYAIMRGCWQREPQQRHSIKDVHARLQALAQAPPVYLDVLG
Procedure: as §1, §2, §3, §4

IRAK4 = IRAK4 (Homo sapiens, UniProt Q9NWZ3); assay: kinase Express Screen; assay type: biochemical
Procedure: as §1, §2, §3, §4

HIPK2 = HIPK2 (Homo sapiens, UniProt Q9H2X6); assay: kinase Express Screen; assay type: biochemical
Procedure: as §1, §2, §3, §4

LKB1 = LKB1 (Homo sapiens, UniProt Q15831); assay: kinase Express Screen; assay type: biochemical
Procedure: as §1, §2, §3, §4

PKD1 = PKD1 (Homo sapiens, UniProt Q15139); assay: kinase Express Screen; assay type: biochemical
Chain of PKD1 (Q15139 whole entry): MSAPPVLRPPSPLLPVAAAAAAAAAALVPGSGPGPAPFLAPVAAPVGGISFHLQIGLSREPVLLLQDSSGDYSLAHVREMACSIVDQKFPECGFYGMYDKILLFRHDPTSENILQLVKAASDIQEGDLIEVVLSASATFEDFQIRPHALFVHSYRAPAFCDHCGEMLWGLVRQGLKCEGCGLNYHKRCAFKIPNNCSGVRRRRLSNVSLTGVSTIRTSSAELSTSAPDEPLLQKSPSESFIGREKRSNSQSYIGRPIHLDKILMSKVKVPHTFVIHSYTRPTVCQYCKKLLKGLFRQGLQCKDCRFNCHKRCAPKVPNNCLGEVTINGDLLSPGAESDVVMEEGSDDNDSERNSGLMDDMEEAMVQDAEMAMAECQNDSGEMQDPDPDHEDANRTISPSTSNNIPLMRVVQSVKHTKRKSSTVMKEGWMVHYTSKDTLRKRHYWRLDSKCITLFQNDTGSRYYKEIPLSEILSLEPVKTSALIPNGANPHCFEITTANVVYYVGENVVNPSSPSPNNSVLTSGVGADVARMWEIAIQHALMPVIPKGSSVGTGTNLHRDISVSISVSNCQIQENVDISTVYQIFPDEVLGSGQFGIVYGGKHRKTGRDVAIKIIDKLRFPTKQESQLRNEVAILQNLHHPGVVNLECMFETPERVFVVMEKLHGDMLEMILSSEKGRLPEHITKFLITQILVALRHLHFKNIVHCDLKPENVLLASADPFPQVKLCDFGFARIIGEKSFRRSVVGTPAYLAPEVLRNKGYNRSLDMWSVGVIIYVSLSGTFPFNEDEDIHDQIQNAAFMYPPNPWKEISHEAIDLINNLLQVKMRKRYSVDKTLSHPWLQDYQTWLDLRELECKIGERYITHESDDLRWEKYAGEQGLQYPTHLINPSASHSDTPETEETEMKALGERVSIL
Procedure: as §1, §2, §3, §4

BRD4 BD1 L/V [4] = target: T2, BRD4 BD1 L/V; assay: ITC; assay type: binding; details: total compound concentration
BRD4 BD1 WT [5] = target: T1, BRD4 BD1 WT; assay: competitive AlphaLISA; assay type: binding; details: pIC50 BRD4 BD1 WT, separated enantiomers test; total compound concentration
BRD2 BD1 WT = BRD2 BD1 WT (Homo sapiens, UniProt P25440); assay: ITC; assay type: binding
Chain of BRD2 BD1 WT (P25440 71-176): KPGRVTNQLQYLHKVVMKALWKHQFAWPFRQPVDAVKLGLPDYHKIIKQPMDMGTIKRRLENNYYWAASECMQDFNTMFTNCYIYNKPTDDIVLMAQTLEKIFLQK

BRD2 BD2 L/V = BRD2 BD2 L/V (Homo sapiens, UniProt P25440, L383V); assay: ITC; assay type: binding
BRD3 BD2 L/V = BRD3 BD2 L/V (Homo sapiens, UniProt Q15059, L345V); assay: ITC; assay type: binding
Chain of BRD3 BD2 L/V (Q15059 306-416 L345V limits assumed): as the sequence (Q15059 306-416) above, with L40V counted along it

SKCa channel = assay: CEREP ExpresSProfile; assay type: binding; details: 1 µM
GAL2 (h) = GAL2 (h) (Homo sapiens, UniProt O43603); assay: CEREP ExpresSProfile; details: read-out: Mean % of control specific binding (±SD)
Excerpt: (§5) Receptor Reference Compound Mean % of control specific
Receptor & Ion-Channel Screening
CEREP ExpresSProfile panel

BRD4 BD2 WT = BRD4 BD2 WT (Homo sapiens, UniProt O60885); assay: ITC; assay type: binding
[6] = tested on: Ca2+ channel (L, verapamil site); assay: CEREP ExpresSProfile; assay type: binding; details: 1 µM
5-HT transporter (h) = 5-HT transporter (h) (Homo sapiens, UniProt P31645); assay: CEREP ExpresSProfile; details: read-out: Mean % of control specific binding (±SD)
BRD2 BD2 WT = BRD2 BD2 WT (Homo sapiens, UniProt P25440); assay: ITC; assay type: binding
BRD3 BD1 L/V = BRD3 BD1 L/V (Homo sapiens, UniProt Q15059, L70V); assay: ITC; assay type: binding
Chain of BRD3 BD1 L/V (Q15059 24-144 L70V limits assumed): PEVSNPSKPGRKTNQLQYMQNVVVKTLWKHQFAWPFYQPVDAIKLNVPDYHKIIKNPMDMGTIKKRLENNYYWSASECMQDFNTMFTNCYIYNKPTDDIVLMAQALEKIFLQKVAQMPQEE

CCK1 (CCKA) (h) = CCK1 (CCKA) (h) (Homo sapiens, UniProt P32238); assay: CEREP ExpresSProfile; details: read-out: Mean % of control specific binding (±SD)
Chain of CCK1 (CCKA) (h) (P32238 whole entry): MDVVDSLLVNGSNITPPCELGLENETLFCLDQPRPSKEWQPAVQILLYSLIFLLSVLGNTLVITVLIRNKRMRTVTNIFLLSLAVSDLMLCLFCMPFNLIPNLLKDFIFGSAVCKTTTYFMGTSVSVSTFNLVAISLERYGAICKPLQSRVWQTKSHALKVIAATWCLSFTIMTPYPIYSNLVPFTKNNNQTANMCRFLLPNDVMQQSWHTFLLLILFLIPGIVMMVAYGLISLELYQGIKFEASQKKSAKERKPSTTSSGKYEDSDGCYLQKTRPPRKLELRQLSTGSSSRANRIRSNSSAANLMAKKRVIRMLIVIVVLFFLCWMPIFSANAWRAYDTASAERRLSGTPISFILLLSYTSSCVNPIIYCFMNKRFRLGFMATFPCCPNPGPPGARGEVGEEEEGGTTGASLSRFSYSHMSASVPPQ
Excerpt: as §5
Receptor & Ion-Channel Screening
CEREP ExpresSProfile panel

BRD2 BD1 L/V = BRD2 BD1 L/V (Homo sapiens, UniProt P25440, L110V); assay: ITC; assay type: binding
Chain of BRD2 BD1 L/V (P25440 71-176 L110V limits assumed): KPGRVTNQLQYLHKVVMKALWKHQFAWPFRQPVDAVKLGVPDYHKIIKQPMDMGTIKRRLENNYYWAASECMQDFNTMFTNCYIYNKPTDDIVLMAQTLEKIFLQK

Chain of M3 (h) (P20309 whole entry): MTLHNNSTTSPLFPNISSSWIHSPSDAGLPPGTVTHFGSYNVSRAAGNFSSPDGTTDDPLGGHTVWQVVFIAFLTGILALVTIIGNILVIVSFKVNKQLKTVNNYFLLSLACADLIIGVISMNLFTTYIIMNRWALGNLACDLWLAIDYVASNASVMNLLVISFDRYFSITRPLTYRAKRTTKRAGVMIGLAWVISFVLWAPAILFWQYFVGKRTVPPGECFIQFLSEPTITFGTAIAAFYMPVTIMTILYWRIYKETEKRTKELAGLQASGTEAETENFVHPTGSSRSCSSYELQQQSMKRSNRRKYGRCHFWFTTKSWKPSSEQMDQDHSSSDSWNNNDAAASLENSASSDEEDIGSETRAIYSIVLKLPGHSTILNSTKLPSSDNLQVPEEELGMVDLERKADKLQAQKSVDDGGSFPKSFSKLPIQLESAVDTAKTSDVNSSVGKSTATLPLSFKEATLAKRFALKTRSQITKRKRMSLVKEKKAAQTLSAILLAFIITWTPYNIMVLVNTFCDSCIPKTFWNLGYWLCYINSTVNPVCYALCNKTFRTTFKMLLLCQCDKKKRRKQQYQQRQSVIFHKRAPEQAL
Chain of BRD3 BD1 WT (Q15059 24-144): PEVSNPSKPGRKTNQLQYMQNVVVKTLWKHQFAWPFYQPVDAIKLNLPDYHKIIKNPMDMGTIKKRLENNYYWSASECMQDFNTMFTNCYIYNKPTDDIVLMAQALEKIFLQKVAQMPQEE

**Q.** Which Kd (BRD3 BD1 WT) does the source give for `COC(=O)[C@H](C)[C@@H]1N=C(c2ccc(Cl)cc2)c2ccc(OC)cc2-n2c(C)nnc21` [(2R,3S)-7] here?
**A.** 7500 nM

**Q.** And the remaining activity at 1 µM (M3 (h))?
**A.** 101%

**Q.** And the Kd (BRD4 BD2 L/V)?
**A.** 300 nM

**Q.** What about the Kd (BRD4 BD1 WT [1]) of the same molecule?
**A.** 58000 ± 4000 nM

**Q.** What about the “ΔH BRD4 BD1 WT” value (BRD4 BD1 WT [1]; ITC, total compound concentration) of the same molecule?
**A.** -13.3 ± 0.5 kcal/mol

**Q.** What about the Kd (BRD3 BD2 WT) of the same molecule?
**A.** 24000 nM

**Q.** And the “ΔpIC50 BRD4 BD1” value (BRD4 BD1 L/V [2]; L/V minus WT)?
**A.** 1.7

**Q.** And the IC50 (BRD4 BD1 L/V [2]; pIC50 BRD4 BD1 L/V, separated enantiomers test)?
**A.** 158 nM

**Q.** What about the remaining activity at 1 µM (D1 (h)) of the same molecule?
**A.** 116%

**Q.** And the potency [3]?
**A.** ~200 nM

**Q.** And the remaining activity at 1 µM (SYK)?
**A.** 98%

**Q.** And the remaining activity at 1 µM (JNK1)?
**A.** 89%

**Q.** What about the remaining activity at 1 µM (MKK1) of the same molecule?
**A.** 89%

**Q.** What about the remaining activity at 1 µM (Src) of the same molecule?
**A.** 82%

**Q.** And the remaining activity at 1 µM (MARK3)?
**A.** 94%

**Q.** And the remaining activity at 1 µM (TrkA)?
**A.** 98%

**Q.** What about the remaining activity at 1 µM (IRAK4) of the same molecule?
**A.** 114%

**Q.** And the remaining activity at 1 µM (HIPK2)?
**A.** 99%

**Q.** What about the remaining activity at 1 µM (LKB1) of the same molecule?
**A.** 91%

**Q.** And the remaining activity at 1 µM (PKD1)?
**A.** 78%

**Q.** And the “ΔH BRD4 BD1 L/V” value (BRD4 BD1 L/V [4]; ITC)?
**A.** -7.9 ± 0.1 kcal/mol

**Q.** What about the Kd (BRD4 BD1 L/V [4]; Kd BRD4 BD1 L/V, ITC of separated enantiomers and racemates) of the same molecule?
**A.** 170 ± 20 nM

**Q.** And the IC50 (BRD4 BD1 WT [5])?
**A.** 7940 nM

**Q.** What about the Kd (BRD2 BD1 WT) of the same molecule?
**A.** 43000 nM

**Q.** What about the Kd (BRD2 BD2 L/V) of the same molecule?
**A.** 200 nM

**Q.** What about the Kd (BRD3 BD2 L/V) of the same molecule?
**A.** 310 nM

**Q.** What about the “Mean % of control specific binding (±SD)” value (SKCa channel) of the same molecule?
**A.** 103 (10) %

**Q.** What about the remaining activity at 1 µM (GAL2 (h)) of the same molecule?
**A.** 96%

**Q.** And the Kd (BRD4 BD2 WT)?
**A.** 29000 nM

**Q.** What about the “Mean % of control specific binding (±SD)” value [6] of the same molecule?
**A.** 108 (6) %

**Q.** What about the remaining activity at 1 µM (5-HT transporter (h)) of the same molecule?
**A.** 96%

**Q.** And the Kd (BRD2 BD2 WT)?
**A.** > 60000 nM

**Q.** What about the Kd (BRD3 BD1 L/V) of the same molecule?
**A.** 90 nM

**Q.** What about the remaining activity at 1 µM (CCK1 (CCKA) (h)) of the same molecule?
**A.** 90%

**Q.** What about the Kd (BRD2 BD1 L/V) of the same molecule?
**A.** 210 nM

From publication PMC5909127, “Optimization of a “bump-and-hole” approach to allele-selective BET bromodomain inhibition” (Chemical Science, 2018)
